Columns and labels:
mMC1R = mMC1R (Mus musculus, UniProt Q01727); test: cAMP based functional bioassay (CRE/β-galactosidase reporter), agonist activity at mMC1R
Method: (§1) The compounds were evaluated using a whole cell assay.
(§2) Compounds were dissolved in DMSO at a stock concentration of 10^−2 M and stored at −20° C. until assayed. HEK-293 cells stably expressing the selected melanocortin receptors were transiently transfected with 4 μg of CRE/β-galactosidase reporter gene. Briefly, 5000-15000 post transfection cells were plated into collagen treated 96-well plates (Nunc) and incubated overnight. […] The assay media was aspirated, and 50 μL of lysis buffer (250 mM Tris-HCl pH=8.0 and 0.1% Triton X-100) was added. The plates were stored at −80° C. overnight. The plates containing the cell lysates were thawed the following day. Aliquots of 10 μL were taken from each well and transferred to another 96-well plate for relative protein determination. To the cell lysate plates, 40 μL of phosphate-buffered saline with 0.5% BSA was added to each well. Subsequently, 150 μL of substrate buffer (60 mM sodium phosphate, 1 mM MgCl2, 10 mM KCl, 5 mM β-mercaptoethanol, 2 mg/mL ONPG) was added to each well and the plates were incubated at 37° C. The sample absorbance, OD405, was measured using a 96-well plate reader (Molecular Devices). The relative protein was determined by adding 200 μL of 1:5 dilution BioRad G250 protein dye:water to the 10 μL of cell lysate sample taken previously, and the OD595 was measured on a 96-well plate reader (Molecular Devices). Data points were normalized to forskolin and the relative protein content were used as positive controls. The EC50 values represent the mean of three or more independent experiments. The EC50 estimates, and their associated standard errors of the mean, were determined by fitting the data to a nonlinear least-squares analysis using the PRISM program (v4.0, GraphPad Inc.).
(§3) The results are tabulated in the form of EC50 values. In the case where the particular receptor was not activated to full activity at 100,000 nM, then the relative activity was reported.

mMC4R [1] = biological target: T1, mMC4R (Mus musculus, UniProt P56450); test: Schild analysis of antagonist activity at mMC4R
Method: The antagonist activity may also be reported as a Ki value, which is the inverse Log of pA2. […] Compounds were dissolved in DMSO at a stock concentration of 10^−2 M and stored at −20° C. until assayed. HEK-293 cells stably expressing the selected melanocortin receptors were transiently transfected with 4 μg of CRE/β-galactosidase reporter gene. Briefly, 5000-15000 post transfection cells were plated into collagen treated 96-well plates (Nunc) and incubated overnight. […] The assay media was aspirated, and 50 μL of lysis buffer (250 mM Tris-HCl pH=8.0 and 0.1% Triton X-100) was added. The plates were stored at −80° C. overnight. The plates containing the cell lysates were thawed the following day. Aliquots of 10 μL were taken from each well and transferred to another 96-well plate for relative protein determination. To the cell lysate plates, 40 μL of phosphate-buffered saline with 0.5% BSA was added to each well. Subsequently, 150 μL of substrate buffer (60 mM sodium phosphate, 1 mM MgCl2, 10 mM KCl, 5 mM β-mercaptoethanol, 2 mg/mL ONPG) was added to each well and the plates were incubated at 37° C. The sample absorbance, OD405, was measured using a 96-well plate reader (Molecular Devices). The relative protein was determined by adding 200 μL of 1:5 dilution BioRad G250 protein dye:water to the 10 μL of cell lysate sample taken previously, and the OD595 was measured on a 96-well plate reader (Molecular Devices). Data points were normalized to forskolin and the relative protein content were used as positive controls. The EC50 values represent the mean of three or more independent experiments. The EC50 estimates, and their associated standard errors of the mean, were determined by fitting the data to a nonlinear least-squares analysis using the PRISM program (v4.0, GraphPad Inc.).
The reported values are on a log scale. In order to put them into perspective, their approximate binding disassociation constants, Ki values, can be calculated through the following relationship pA2=−Log10 (Ki).

mMC4R [2] = biological target: T1, mMC4R; test: cAMP based functional bioassay (CRE/β-galactosidase reporter), agonist activity at mMC4R; details: for mMC4R Activity @ 10 μM (relative activity, percent) / mMC4R Activity @ 10 μM (class): reported where receptor not activated to full activity
Method: as §1, §2, §3

mMC3R = mMC3R (Mus musculus, UniProt P33033); test: cAMP based functional bioassay (CRE/β-galactosidase reporter), agonist activity at mMC3R; details: for mMC3R Activity @ 10 μM (class) / mMC3R Activity @ 10 μM (relative activity, percent): reported where receptor not activated to full activity
Sequence of mMC3R (P33033 whole entry): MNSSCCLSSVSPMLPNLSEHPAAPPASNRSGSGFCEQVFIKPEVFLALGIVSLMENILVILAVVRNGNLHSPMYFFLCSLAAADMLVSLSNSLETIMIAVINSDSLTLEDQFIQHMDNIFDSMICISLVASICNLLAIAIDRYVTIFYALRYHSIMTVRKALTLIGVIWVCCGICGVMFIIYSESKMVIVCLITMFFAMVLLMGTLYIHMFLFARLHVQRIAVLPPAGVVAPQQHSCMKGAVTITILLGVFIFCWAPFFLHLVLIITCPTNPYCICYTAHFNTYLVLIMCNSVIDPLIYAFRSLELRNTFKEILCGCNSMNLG
Method: as §1, §2, §3

mMC5R = mMC5R (Mus musculus, UniProt P41149); test: cAMP based functional bioassay (CRE/β-galactosidase reporter), agonist activity at mMC5R
Sequence of mMC5R (P41149 whole entry): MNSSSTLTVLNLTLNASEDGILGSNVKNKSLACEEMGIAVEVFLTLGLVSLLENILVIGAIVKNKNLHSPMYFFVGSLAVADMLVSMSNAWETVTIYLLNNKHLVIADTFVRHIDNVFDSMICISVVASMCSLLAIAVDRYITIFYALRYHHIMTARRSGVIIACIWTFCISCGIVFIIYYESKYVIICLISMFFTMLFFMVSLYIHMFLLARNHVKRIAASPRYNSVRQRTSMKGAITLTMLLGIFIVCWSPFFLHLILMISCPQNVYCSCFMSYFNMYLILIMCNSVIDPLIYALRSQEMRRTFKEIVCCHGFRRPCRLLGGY
Method: as §1, §2, §3

T1 sequence (P56450 whole entry): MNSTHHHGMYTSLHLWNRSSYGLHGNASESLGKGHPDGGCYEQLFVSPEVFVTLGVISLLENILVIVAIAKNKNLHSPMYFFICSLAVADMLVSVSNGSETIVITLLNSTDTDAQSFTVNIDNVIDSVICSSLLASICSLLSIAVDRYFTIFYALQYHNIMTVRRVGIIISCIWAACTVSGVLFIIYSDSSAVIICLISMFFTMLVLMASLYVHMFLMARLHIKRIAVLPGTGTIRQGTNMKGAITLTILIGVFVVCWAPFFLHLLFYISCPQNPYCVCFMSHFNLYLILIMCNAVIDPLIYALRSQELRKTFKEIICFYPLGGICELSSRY
Sequence of mMC1R (Q01727 whole entry): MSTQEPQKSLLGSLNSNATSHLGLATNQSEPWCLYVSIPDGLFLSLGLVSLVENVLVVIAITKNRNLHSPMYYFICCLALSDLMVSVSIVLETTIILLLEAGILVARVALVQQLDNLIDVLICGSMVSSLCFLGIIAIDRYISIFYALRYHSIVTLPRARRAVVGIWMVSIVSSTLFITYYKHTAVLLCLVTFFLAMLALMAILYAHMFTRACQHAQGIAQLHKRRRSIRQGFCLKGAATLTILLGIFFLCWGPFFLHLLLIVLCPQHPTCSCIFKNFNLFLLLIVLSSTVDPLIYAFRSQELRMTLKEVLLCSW

EC50 (mMC1R) [µM]	Kb (mMC4R [1]) [µM]	mMC4R Activity @ 10 μM (relative activity, percent) (mMC4R [2]) [%]	EC50 (mMC3R) [µM]	EC50 (mMC5R) [µM]	EC50 (mMC4R [2]) [µM]	mMC3R Activity @ 10 μM (class) (mMC3R)	mMC3R Activity @ 10 μM (relative activity, percent) (mMC3R) [%]	mMC4R Activity @ 10 μM (class) (mMC4R [2])	mMC1R Activity @ 10 μM (class) (mMC1R; reported where receptor not activated to full activity)	SMILES
0.33 ± 0.11	3.16	55	0.24 ± 0.04	0.34 ± 0.14						CC(C)C[C@@H]1CNC(=N)N1C[C@@H]1CCCN1C[C@@H](CC1CCCCC1)N1C[C@@H]([C@@H](C)O)N(CC23CC4CC(CC(C4)C2)C3)C1=N [TPI 2509-4, (R)-1-((S)-3-(adamantan-1-ylmethyl)-1-((R)-1-cyclohexyl-3-((S)-2-(((R)-2-imino-5-isobutylimidazolidin-1-yl)methyl)pyrrolidin-1-yl)propan-2-yl)-2-iminoimidazolidin-4-yl)ethanol]
0.3 ± 0.09	1.58	45	0.21 ± 0.05	0.14 ± 0.07						CC(C)C[C@@H]1CNC(=N)N1C[C@@H]1CCCN1C[C@@H](CC1CCCCC1)N1C[C@@H]([C@@H](C)O)N(CC2CCC(C(C)(C)C)CC2)C1=N (stereo partly drawn) [TPI 2509-5, (R)-1-((S)-3-((4-(tert-butyl)cyclohexyl)methyl)-1-((R)-1-cyclohexyl-3-((S)-2-(((R)-2-imino-5-isobutylimidazolidin-1-yl)methyl)pyrrolidin-1-yl)propan-2-yl)-2-iminoimidazolidin-4-yl)ethanol]
15.5 ± 14				0.44 ± 0.11	8.2 ± 3.55	B (B: >51%)	67			CC(C)C[C@@H]1CNC(=N)N1C[C@@H]1CCCN1C[C@@H](Cc1ccccc1)N1C[C@@H](C(C)C)N(CC23CC4CC(CC(C4)C2)C3)C1=N [TPI 2509-19, (R)-3-(adamantan-1-ylmethyl)-1-((R)-1-((S)-2-(((R)-2-imino-5-isobutylimidazolidin-1-yl)methyl)pyrrolidin-1-yl)-3-phenylpropan-2-yl)-4-isopropylimidazolidin-2-imine]
0.55		45	2.8 ± 1.8	0.59 ± 0.18				A (A: <50%)		CCC[C@@H]1CN([C@H](CC2CCCCC2)CN2CCC[C@H]2CN2C(=N)NC[C@H]2C(C)C)C(=N)N1CC12CC3CC(CC(C3)C1)C2 [TPI 2509-25, (R)-3-(adamantan-1-ylmethyl)-1-((R)-1-cyclohexyl-3-((S)-2-(((R)-2-imino-5-isopropylimidazolidin-1-yl)methyl)pyrrolidin-1-yl)propan-2-yl)-4-propylimidazolidin-2-imine]
		40		1.04 ± 0.15		B (B: >51%)		A (A: <50%)	B (B: >51%)	CCC[C@@H]1CN([C@H](CC2CCCCC2)CN2CCC[C@H]2CN2C(=N)NC[C@H]2C(C)C)C(=N)N1CCCC(C)C [TPI 2509-27]
0.3 ± 0.03		40	3.7 ± 0.88	0.58 ± 0.16				A (A: <50%)		CC(C)[C@@H]1CNC(=N)N1C[C@@H]1CCCN1C[C@@H](CC1CCCCC1)N1C[C@@H](C(C)C)N(CC23CC4CC(CC(C4)C2)C3)C1=N [TPI 2509-28, (R)-3-(adamantan-1-ylmethyl)-1-((R)-1-cyclohexyl-3-((S)-2-(((R)-2-imino-5-isopropylimidazolidin-1-yl)methyl)pyrrolidin-1-yl)propan-2-yl)-4-isopropylimidazolidin-2-imine]
0.29 ± 0.02		28	4.3 ± 3.3	0.51 ± 0.05				A (A: <50%)		CC(C)[C@@H]1CNC(=N)N1C[C@@H]1CCCN1C[C@@H](CC1CCCCC1)N1C[C@@H](C(C)C)N(CC2CCC(C(C)(C)C)CC2)C1=N (stereo partly drawn) [TPI 2509-29, (R)-3-((4-(tert-butyl)cyclohexyl)methyl)-1-((R)-1-cyclohexyl-3-((S)-2-(((R)-2-imino-5-isopropylimidazolidin-1-yl)methyl)pyrrolidin-1-yl)propan-2-yl)-4-isopropylimidazolidin-2-imine]
6.1				1.7 ± 0.52		B (B: >51%)		B (B: >51%)		CC(C)CCCN1C(=N)N([C@H](CC2CCCCC2)CN2CCC[C@H]2CN2C(=N)NC[C@H]2C(C)C)C[C@H]1C(C)C [TPI 2509-30, (R)-1-((R)-1-cyclohexyl-3-((S)-2-(((R)-2-imino-5-isopropylimidazolidin-1-yl)methyl)pyrrolidin-1-yl)propan-2-yl)-4-isopropyl-3-(4-methylpentyl)imidazolidin-2-imine]
6.7 ± 4.7			2 ± 0.85	6.6 ± 5.74	1.4 ± 0.76					CCC[C@@H]1CN([C@H](Cc2ccccc2)CN2CCC[C@H]2CN2C(=N)NC[C@H]2C(C)C)C(=N)N1CC12CC3CC(CC(C3)C1)C2 [TPI 2509-34, (R)-3-(adamantan-1-ylmethyl)-1-((R)-1-((S)-2-(((R)-2-imino-5-isopropylimidazolidin-1-yl)methyl)pyrrolidin-1-yl)-3-phenylpropan-2-yl)-4-propylimidazolidin-2-imine]
2.3 ± 1		27	6.2 ± 5.4	0.94 ± 0.34				A (A: <50%)		CCC[C@@H]1CN([C@H](Cc2ccccc2)CN2CCC[C@H]2CN2C(=N)NC[C@H]2C(C)C)C(=N)N1CC1CCC(C(C)(C)C)CC1 (stereo partly drawn) [TPI 2509-35, (R)-3-((4-(tert-butyl)cyclohexyl)methyl)-1-((R)-1-((S)-2-(((R)-2-imino-5-isopropylimidazolidin-1-yl)methyl)pyrrolidin-1-yl)-3-phenylpropan-2-yl)-4-propylimidazolidin-2-imine]
47.8 ± 23.1		54	4 ± 1.9	0.66 ± 0.13				B (B: >51%)		CC(C)[C@@H]1CNC(=N)N1C[C@@H]1CCCN1C[C@@H](Cc1ccccc1)N1C[C@@H](C(C)C)N(CC23CC4CC(CC(C4)C2)C3)C1=N [TPI 2509-37, (R)-3-(adamantan-1-ylmethyl)-1-((R)-1-((S)-2-(((R)-2-imino-5-isopropylimidazolidin-1-yl)methyl)pyrrolidin-1-yl)-3-phenylpropan-2-yl)-4-isopropylimidazolidin-2-imine]
0.29 ± 0.02		23		0.38 ± 0.05		B (B: >51%)	65	A (A: <50%)		CC[C@H](C)[C@@H]1CNC(=N)N1C[C@@H]1CCCN1C[C@@H](Cc1ccccc1)N1CC(Cc2ccc(O)cc2)N(CC2CCC(C(C)(C)C)CC2)C1=N (stereo partly drawn) [TPI 2509-40, 4-((1-((R)-1-((S)-2-(((R)-5-((S)-sec-butyl)-2-iminoimidazolidin-1-yl)methyl)pyrrolidin-1-yl)-3-phenylpropan-2-yl)-3-((4-(tert-butyl)cyclohexyl)methyl)-2-iminoimidazolidin-4-yl)methyl)phenol]
